# Source: publication PMC5218480 (PLoS ONE, 2017)
# Test system: MV-4-11 cells
# Experiment: Gene expression microarray analysis (Affymetrix PrimeView) and GSEA
# Type: cell-based, human
# Design: RFU PODN (11730768_x_at) / Fold change /veh PODN (11730768_x_at) / RFU LINC00158 (11744669_a_at) / Fold change /veh LINC00158 (11744669_a_at) / RFU DUSP10 (11751237_a_at) / Fold change /veh DUSP10 (11751237_a_at) / RFU ID3 (11757404_x_at) / Fold change /veh ID3 (11757404_x_at) / RFU PLEKHG5 (11737974_s_at) / Fold change /veh PLEKHG5 (11737974_s_at) / RFU LRRC4B (11730491_at) / Fold change /veh LRRC4B (11730491_at) / RFU GIMAP4 (11747438_a_at) / Fold change /veh GIMAP4 (11747438_a_at) / RFU KRT8 (11758183_x_at) / Fold change /veh KRT8 (11758183_x_at) / RFU CNN1 (11734310_a_at) / Fold change /veh CNN1 (11734310_a_at) / RFU VPS37D (11726825_at) / Fold change /veh VPS37D (11726825_at) / RFU C10orf10 (11716522_x_at) / Fold change /veh C10orf10 (11716522_x_at) / RFU KIR2DL2 /// KIR2DL4 /// KIR2DL5A /// KIR2DL5B /// KIR2DS1 /// KIR2DS2 /// KIR2DS3 /// KIR2DS4 /// KIR3DL3 /// KIR3DL3 /// KIR3DS1 (11738374_at) / Fold change /veh KIR2DL2 /// KIR2DL4 /// KIR2DL5A /// KIR2DL5B /// KIR2DS1 /// KIR2DS2 /// KIR2DS3 /// KIR2DS4 /// KIR3DL3 /// KIR3DL3 /// KIR3DS1 (11738374_at) / RFU C1QL1 (11718748_at) / Fold change /veh C1QL1 (11718748_at) / RFU TMPRSS4 (11747572_a_at) / Fold change /veh TMPRSS4 (11747572_a_at) / RFU HAMP (11756126_x_at) / Fold change /veh HAMP (11756126_x_at) / RFU RNFT2 (11725882_a_at) / Fold change /veh RNFT2 (11725882_a_at) / RFU NR4A2 (11747474_a_at) / Fold change /veh NR4A2 (11747474_a_at) / RFU ABCC12 (11746883_a_at) / Fold change /veh ABCC12 (11746883_a_at) / RFU TMEM136 (11760407_x_at) / Fold change /veh TMEM136 (11760407_x_at) / RFU CLDN22 /// WWC2 (11732394_at) / Fold change /veh CLDN22 /// WWC2 (11732394_at) / RFU HLA-DPB1 (11760878_x_at) / Fold change /veh HLA-DPB1 (11760878_x_at) / RFU SPINT1 (11716480_a_at) / Fold change /veh SPINT1 (11716480_a_at) / RFU GAP43 (11754022_s_at) / Fold change /veh GAP43 (11754022_s_at) / RFU A4GNT (11735810_at) / Fold change /veh A4GNT (11735810_at) / RFU PRB3 (11715151_x_at) / Fold change /veh PRB3 (11715151_x_at) / RFU TUBB4B (11761932_at) / Fold change /veh TUBB4B (11761932_at) / RFU CAPN14 (11732068_a_at) / Fold change /veh CAPN14 (11732068_a_at) / RFU TMCC2 (11721928_a_at) / Fold change /veh TMCC2 (11721928_a_at) / RFU IRGQ (11745062_a_at) / Fold change /veh IRGQ (11745062_a_at) / RFU FAM174B (11720279_a_at) / Fold change /veh FAM174B (11720279_a_at) / RFU TMPRSS4 (11748680_a_at) / Fold change /veh TMPRSS4 (11748680_a_at) / RFU FAM212B (11763350_a_at) / Fold change /veh FAM212B (11763350_a_at) / RFU PLEKHG5 (11743358_a_at) / Fold change /veh PLEKHG5 (11743358_a_at) / RFU ZSCAN30 (11745921_a_at) / Fold change /veh ZSCAN30 (11745921_a_at) / RFU CMKLR1 (11741424_a_at) / Fold change /veh CMKLR1 (11741424_a_at) / RFU LOC101060620 /// MAPK8IP1 (11723275_at) / Fold change /veh LOC101060620 /// MAPK8IP1 (11723275_at) / RFU SPTSSB (11747773_x_at) / Fold change /veh SPTSSB (11747773_x_at) / RFU PRSS12 (11739890_at) / Fold change /veh PRSS12 (11739890_at) / RFU BIN1 (11741810_x_at) / Fold change /veh BIN1 (11741810_x_at) / RFU WNT11 (11732464_a_at) / Fold change /veh WNT11 (11732464_a_at) / RFU C10orf10 (11716521_a_at) / Fold change /veh C10orf10 (11716521_a_at) / RFU C5orf56 (11738089_at) / Fold change /veh C5orf56 (11738089_at) / RFU CYB561 (11721691_x_at) / Fold change /veh CYB561 (11721691_x_at) / RFU ANKRD19P (11752326_a_at) / Fold change /veh ANKRD19P (11752326_a_at) / RFU OR2T12 /// OR2T33 /// OR2T8 (11738714_s_at) / Fold change /veh OR2T12 /// OR2T33 /// OR2T8 (11738714_s_at) / RFU VCAN (11748164_a_at) / Fold change /veh VCAN (11748164_a_at) / RFU JSRP1 (11732532_at) / Fold change /veh JSRP1 (11732532_at) / RFU KRTAP10-11 (11738290_x_at) / Fold change /veh KRTAP10-11 (11738290_x_at) / RFU MYO3A (11730013_a_at) / Fold change /veh MYO3A (11730013_a_at) / RFU EBF3 (11725865_a_at) / Fold change /veh EBF3 (11725865_a_at) / RFU CAMK2N1 (11719241_x_at) / Fold change /veh CAMK2N1 (11719241_x_at) / RFU C5orf56 (11738088_a_at) / Fold change /veh C5orf56 (11738088_a_at) / RFU OLFML3 (11715873_a_at) / Fold change /veh OLFML3 (11715873_a_at) / RFU LOC100653217 /// NTM (11731650_a_at) / Fold change /veh LOC100653217 /// NTM (11731650_a_at) / RFU MAPK11 (11762145_a_at) / Fold change /veh MAPK11 (11762145_a_at) / RFU FIZ1 (11724087_x_at) / Fold change /veh FIZ1 (11724087_x_at) / RFU OASL (11726364_x_at) / Fold change /veh OASL (11726364_x_at) / RFU SOX15 (11748057_x_at) / Fold change /veh SOX15 (11748057_x_at) / RFU CD79A (11719716_a_at) / Fold change /veh CD79A (11719716_a_at) / RFU HIST1H1D (11736915_at) / Fold change /veh HIST1H1D (11736915_at) / RFU CASKIN2 (11723855_a_at) / Fold change /veh CASKIN2 (11723855_a_at) / RFU LOC730098 (11760151_x_at) / Fold change /veh LOC730098 (11760151_x_at) / RFU OR4N2 (11742367_at) / Fold change /veh OR4N2 (11742367_at) / RFU PRRT2 (11749266_a_at) / Fold change /veh PRRT2 (11749266_a_at) / RFU SNX32 (11753110_a_at) / Fold change /veh SNX32 (11753110_a_at) / RFU CDHR5 (11726645_a_at) / Fold change /veh CDHR5 (11726645_a_at) / RFU RCAN1 (11760418_a_at) / Fold change /veh RCAN1 (11760418_a_at) / RFU FAM167A (11723789_a_at) / Fold change /veh FAM167A (11723789_a_at) / RFU FAM26E (11764081_at) / Fold change /veh FAM26E (11764081_at) / RFU ISYNA1 (11749810_s_at) / Fold change /veh ISYNA1 (11749810_s_at) / RFU ACY1 (11761880_at) / Fold change /veh ACY1 (11761880_at) / RFU 11764098_at / Fold change /veh 11764098_at / RFU SAMD14 (11745864_x_at) / Fold change /veh SAMD14 (11745864_x_at) / RFU NPB (11741838_a_at) / Fold change /veh NPB (11741838_a_at) / RFU TMPRSS6 (11731388_a_at) / Fold change /veh TMPRSS6 (11731388_a_at) / RFU KRTAP10-2 (11738614_at) / Fold change /veh KRTAP10-2 (11738614_at) / RFU ARHGAP8 /// PRR5-ARHGAP8 (11727945_x_at) / Fold change /veh ARHGAP8 /// PRR5-ARHGAP8 (11727945_x_at) / RFU KRTAP5-7 /// NADSYN1 (11734609_at) / Fold change /veh KRTAP5-7 /// NADSYN1 (11734609_at) / RFU RASL12 (11751679_a_at) / Fold change /veh RASL12 (11751679_a_at) / RFU CDKN2B (11736163_a_at) / Fold change /veh CDKN2B (11736163_a_at) / RFU PRF1 (11729649_at) / Fold change /veh PRF1 (11729649_at) / RFU, ZNF638 /// ZNF638-IT1 / Fold change vs veh, ZNF638 /// ZNF638-IT1 / RFU, PANK3 / Fold change vs veh, PANK3 / RFU, SH3YL1 / Fold change vs veh, SH3YL1 / RFU, ZEB2 / Fold change vs veh, ZEB2 / RFU, NRIP1 / Fold change vs veh, NRIP1 / RFU, PTTG1IP / Fold change vs veh, PTTG1IP / RFU, CAPN2 / Fold change vs veh, CAPN2 / RFU, MED14 / Fold change vs veh, MED14 / RFU, SNORA58 / Fold change vs veh, SNORA58 / RFU, C1orf63 / Fold change vs veh, C1orf63 / RFU, LRRFIP1 / Fold change vs veh, LRRFIP1 / RFU, NDUFAF7 / Fold change vs veh, NDUFAF7 / RFU, SLC12A2 / Fold change vs veh, SLC12A2 / RFU, IBTK / Fold change vs veh, IBTK / RFU, ESF1 / Fold change vs veh, ESF1 / Fold change vs veh, TMEM50B / RFU, TAOK1 / Fold change vs veh, TAOK1 / RFU, ACBD3 / Fold change vs veh, ACBD3 / RFU, TMA16 / Fold change vs veh, TMA16 / RFU, RWDD3 / Fold change vs veh, RWDD3 / RFU, BCAT1 / Fold change vs veh, BCAT1 / RFU, EDEM3 / Fold change vs veh, EDEM3 / RFU, TMEM33 / Fold change vs veh, TMEM33 / RFU, WDR75 / Fold change vs veh, WDR75 / RFU, AHCTF1 / Fold change vs veh, AHCTF1 / RFU, TFRC / Fold change vs veh, TFRC / RFU, ZDHHC17 / Fold change vs veh, ZDHHC17 / RFU, NOM1 / Fold change vs veh, NOM1 / RFU, ARL8B / Fold change vs veh, ARL8B / RFU, ZBTB11 / Fold change vs veh, ZBTB11 / RFU, TAMM41 / Fold change vs veh, TAMM41 / RFU, KIAA1704 /// LOC100996395 / Fold change vs veh, KIAA1704 /// LOC100996395 / RFU, ING1 / Fold change vs veh, ING1 / RFU, TRMT61B / Fold change vs veh, TRMT61B / RFU, FUBP3 / Fold change vs veh, FUBP3 / RFU, TP53 / Fold change vs veh, TP53 / RFU, TNKS2 / Fold change vs veh, TNKS2 / RFU, ZFP14 / Fold change vs veh, ZFP14 / RFU, ACTR2 / Fold change vs veh, ACTR2 / RFU, PPP3R1 / Fold change vs veh, PPP3R1 / RFU, PIK3R1 / Fold change vs veh, PIK3R1 / RFU, HNRNPA1 / Fold change vs veh, HNRNPA1 / RFU, RNF170 / Fold change vs veh, RNF170 / RFU, ZNF28 / Fold change vs veh, ZNF28 / RFU, RNGTT / Fold change vs veh, RNGTT / RFU, OGT / Fold change vs veh, OGT / RFU, BRD1 / Fold change vs veh, BRD1 / RFU, MARS / Fold change vs veh, MARS / RFU, ZNF655 / Fold change vs veh, ZNF655 / RFU, FAHD1 / Fold change vs veh, FAHD1 / RFU, BDP1 / Fold change vs veh, BDP1 / RFU, LRRCC1 / Fold change vs veh, LRRCC1 / RFU, ARID1A / Fold change vs veh, ARID1A / RFU, ZNF146 / Fold change vs veh, ZNF146 / RFU, ZNF330 / Fold change vs veh, ZNF330 / RFU, GPN3 / Fold change vs veh, GPN3 / RFU, C9orf123 / Fold change vs veh, C9orf123 / RFU, N4BP2L2 / Fold change vs veh, N4BP2L2 / RFU, ARFIP1 / Fold change vs veh, ARFIP1 / RFU, FAM179B / Fold change vs veh, FAM179B / RFU, BCL10 / Fold change vs veh, BCL10 / RFU, UHRF1BP1L / Fold change vs veh, UHRF1BP1L / RFU, BET1 / Fold change vs veh, BET1 / RFU, CNOT2 / Fold change vs veh, CNOT2 / RFU, ZNF268 / Fold change vs veh, ZNF268 / Fold change vs veh, ZNF507 / RFU, DGCR2 / Fold change vs veh, DGCR2 / RFU, WDSUB1 / Fold change vs veh, WDSUB1 / Fold change vs veh, HSP90B1 /// MIR3652 / RFU, ADSS / Fold change vs veh, ADSS / RFU, GK / Fold change vs veh, GK / RFU, ZNF148 / Fold change vs veh, ZNF148 / RFU, TAF9 / Fold change vs veh, TAF9 / RFU, SLC1A5 / Fold change vs veh, SLC1A5 / RFU, SLMO2 / Fold change vs veh, SLMO2 / RFU, ABCC4 / Fold change vs veh, ABCC4 / RFU, LOC101060439 /// RAP1B / Fold change vs veh, LOC101060439 /// RAP1B / RFU, RFX7 / Fold change vs veh, RFX7 / RFU, GTPBP10 / Fold change vs veh, GTPBP10 / RFU, CNEP1R1 / Fold change vs veh, CNEP1R1 / RFU, BIVM-ERCC5 /// ERCC5 / Fold change vs veh, BIVM-ERCC5 /// ERCC5 / RFU, ILF3 / Fold change vs veh, ILF3 / RFU 11762660_at / Fold change /veh 11762660_at / RFU VCAN (11757783_s_at) / Fold change /veh VCAN (11757783_s_at) / RFU DDX43 (11728927_at) / Fold change /veh DDX43 (11728927_at) / RFU KRT8 (11758188_x_at) / Fold change /veh KRT8 (11758188_x_at) / RFU NKD1 (11759106_at) / Fold change /veh NKD1 (11759106_at) / RFU SRD5A1 (11742802_a_at) / Fold change /veh SRD5A1 (11742802_a_at) / RFU TPSAB1 /// TPSB2 (11721975_s_at) / Fold change /veh TPSAB1 /// TPSB2 (11721975_s_at) / RFU GSTM3 (11746129_a_at) / Fold change /veh GSTM3 (11746129_a_at) / RFU IL23R (11737362_x_at) / Fold change /veh IL23R (11737362_x_at) / RFU TMEM51 (11727254_a_at) / Fold change /veh TMEM51 (11727254_a_at) / RFU PIWIL2 (11732686_x_at) / Fold change /veh PIWIL2 (11732686_x_at) / RFU ORM1 (11744905_x_at) / Fold change /veh ORM1 (11744905_x_at) / RFU CCDC152 (11743942_at) / Fold change /veh CCDC152 (11743942_at) / RFU ECM1 (11717891_a_at) / Fold change /veh ECM1 (11717891_a_at) / RFU IL23R (11748794_a_at) / Fold change /veh IL23R (11748794_a_at) / RFU TNFAIP8L3 (11732012_x_at) / Fold change /veh TNFAIP8L3 (11732012_x_at) / RFU MBOAT4 (11741988_at) / Fold change /veh MBOAT4 (11741988_at) / RFU 11764193_at / Fold change /veh 11764193_at / RFU TMEM53 (11763286_at) / Fold change /veh TMEM53 (11763286_at) / RFU MAGEB2 (11727129_at) / Fold change /veh MAGEB2 (11727129_at) / RFU TMEM200A (11744735_a_at) / Fold change /veh TMEM200A (11744735_a_at) / RFU CCDC152 (11751479_a_at) / Fold change /veh CCDC152 (11751479_a_at) / RFU FAM211A (11726209_a_at) / Fold change /veh FAM211A (11726209_a_at) / RFU RGS16 (11746705_a_at) / Fold change /veh RGS16 (11746705_a_at) / RFU VCAN (11755009_s_at) / Fold change /veh VCAN (11755009_s_at) / RFU RHOB (11743442_s_at) / Fold change /veh RHOB (11743442_s_at) / RFU RGS16 (11720943_a_at) / Fold change /veh RGS16 (11720943_a_at) / RFU RGS16 (11720944_at) / Fold change /veh RGS16 (11720944_at) / RFU, VPS4B / Fold change vs veh, VPS4B / RFU, CREB1 / Fold change vs veh, CREB1 / RFU, DNAJC13 / Fold change vs veh, DNAJC13 / RFU, GNAQ / Fold change vs veh, GNAQ / RFU, CDK5R1 / Fold change vs veh, CDK5R1 / RFU, ZRANB3 / Fold change vs veh, ZRANB3 / RFU, CUL4A / Fold change vs veh, CUL4A / RFU, CCNY / Fold change vs veh, CCNY / RFU, UFL1 / Fold change vs veh, UFL1 / RFU, COG3 / Fold change vs veh, COG3 / RFU, DIAPH2 / Fold change vs veh, DIAPH2 / RFU, SKA2 / Fold change vs veh, SKA2 / RFU, AFF3 / Fold change vs veh, AFF3 / RFU, LMF1 / Fold change vs veh, LMF1 / RFU, IPO11 / Fold change vs veh, IPO11 / RFU, DFFB / Fold change vs veh, DFFB / RFU, FOXP1 / Fold change vs veh, FOXP1 / RFU, CARD8 / Fold change vs veh, CARD8 / RFU, STRN3 / Fold change vs veh, STRN3 / RFU, ADK / Fold change vs veh, ADK / RFU, RASSF2 / Fold change vs veh, RASSF2 / RFU, WIPF1 / Fold change vs veh, WIPF1 / RFU, LARP1B / Fold change vs veh, LARP1B / RFU, RASA1 / Fold change vs veh, RASA1 / RFU, RB1 / Fold change vs veh, RB1 / RFU, PPFIA1 / Fold change vs veh, PPFIA1 / RFU, MAT2A / Fold change vs veh, MAT2A / RFU, CCT5 / Fold change vs veh, CCT5 / RFU, WDR92 / Fold change vs veh, WDR92 / RFU, CUX1 / Fold change vs veh, CUX1 / RFU, TTC7A / Fold change vs veh, TTC7A / RFU, TMEM135 / Fold change vs veh, TMEM135 / RFU, DEPTOR / Fold change vs veh, DEPTOR / RFU, CPM / Fold change vs veh, CPM / RFU, DNAJB6 / Fold change vs veh, DNAJB6 / RFU, CACNA2D3 / Fold change vs veh, CACNA2D3 / RFU, DTX4 / Fold change vs veh, DTX4 / RFU, TFCP2 / Fold change vs veh, TFCP2 / RFU, GMCL1 /// GMCL1P1 / Fold change vs veh, GMCL1 /// GMCL1P1 / RFU, AEBP2 / Fold change vs veh, AEBP2 / RFU, SNHG1 /// SNORD22 /// SNORD25 /// SNORD26 /// SNORD27 /// SNORD28 /// SNORD29 /// SNORD31 / Fold change vs veh, SNHG1 /// SNORD22 /// SNORD25 /// SNORD26 /// SNORD27 /// SNORD28 /// SNORD29 /// SNORD31 / Fold change (Aza/veh), C12orf56 (ProbeSet 11735607_a_at) / Fold change (ACY-1035/veh), C12orf56 (ProbeSet 11735607_a_at) / Fold change (Aza/veh), FGFR1OP (ProbeSet 11751329_s_at) / Fold change (ACY-1035/veh), FGFR1OP (ProbeSet 11751329_s_at) / Fold change (Aza/veh), VPS36 (ProbeSet 11739960_a_at) / Fold change (ACY-1035/veh), VPS36 (ProbeSet 11739960_a_at) / RFU SYPL1 (11715823_x_at) / Fold change /veh SYPL1 (11715823_x_at) / RFU IGFBP7 (11715501_s_at) / Fold change /veh IGFBP7 (11715501_s_at) / RFU REEP3 (11722064_at) / Fold change /veh REEP3 (11722064_at) / RFU IGLL1 (11728026_x_at) / Fold change /veh IGLL1 (11728026_x_at): dose or concentration left out as unconfirmed
# Settings: ProbeSet 11757113_a_at; LIST D
structure (smiles),measurement,value
Nc1ncn([C@@H]2O[C@H](CO)[C@@H](O)[C@H]2O)c(=O)n1 [azacitidine],"RFU, SNHG1 /// SNORD22 /// SNORD25 /// SNORD26 /// SNORD27 /// SNORD28 /// SNORD29 /// SNORD31",298.12 RFU
